The values that follow come from US10189839B2, “Tricyclic imidazole compounds as inhibitors of tryptophan hydroxylase” (ACTELION PHARMACEUTICALS LTD, priority 2013, dated 2019).

Experiment [1] concerns 5HT. Particulars: mice; cited from earlier work.
Experiment [2] has as its system blood 5HT and urinary 5HIAA. As to conditions: phase IIA study, qid; cited from earlier work.
In experiment [3] the test system is 5HT. Particulars: in vivo; cited from earlier work.
The next experiment relates to cholangiocarcinoma. Particulars: xenograft model of cholangiocarcinoma; cited from earlier work.
Experiment [4] deals with 5HT. As to conditions: 200 mg/kg i.p. qid for 3 days; cited from earlier work.
The target in another experiment is T1, full length human TPH1 (Homo sapiens, UniProt P17752).
T1 construct: To generate the enzyme, full length human TPH1 is cloned into the plasmid pET20b(+); made in house; host or cells: E. coli
T1 sequence (P17752 1-444): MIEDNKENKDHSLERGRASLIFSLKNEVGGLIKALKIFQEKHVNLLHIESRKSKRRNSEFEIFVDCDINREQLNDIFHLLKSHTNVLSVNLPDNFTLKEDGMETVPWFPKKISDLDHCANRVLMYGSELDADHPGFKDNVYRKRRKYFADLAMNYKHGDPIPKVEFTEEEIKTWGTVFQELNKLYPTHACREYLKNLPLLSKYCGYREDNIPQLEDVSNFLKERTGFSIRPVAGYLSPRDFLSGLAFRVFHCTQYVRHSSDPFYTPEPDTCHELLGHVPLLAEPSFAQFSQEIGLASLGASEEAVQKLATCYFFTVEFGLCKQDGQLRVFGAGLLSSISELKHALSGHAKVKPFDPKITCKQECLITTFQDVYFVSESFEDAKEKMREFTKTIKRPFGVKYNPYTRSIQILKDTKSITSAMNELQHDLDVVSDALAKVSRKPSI
Kind of experiment: Biochemical in vitro assay using fluorescence readout (TPH1 enzyme activity). As to conditions: Table 1, mean where determined several times. An outline of the steps: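 IC50 (mean of repeats) derived from 5-hydroxy-L-tryptophan fluorescence at 540 nm (300 nm excitation) relative to vehicle, after perchloric acid stop. Reaction: 60 min, 15° C., pH 7.6 Tris-HCl, 40 μM L-tryptophan, 100 μM 6-methyltetrahydropterine, DTT, catalase, with 40-80 nM purified full-length human TPH1 from E. coli.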

Molecules are shown by their SMILES.

For the compound `Nc1nc(OC(c2ccc(-c3cccc(F)c3)cc2)C(F)(F)F)cc(-c2ccc(C[C@H](N)C(=O)O)cc2)n1` (stereo partly drawn) [LP533401], in the experiment on 5HT [1], the “brain 5HT concentrations” value was “without effecting brain concentrations” and the “gut 5HT” value is reported as “lower gut 5HT”. Regarding `COc1cccc(-c2ccc([C@@H](Oc3cc(-c4ccc(C[C@H](N)C(=O)O)cc4)nc(N)n3)C(F)(F)F)cc2)c1` [LX1031, (S)-2-Amino-3-(4-{2-amino-6-[(R)-2,2,2-trifluoro-1-(3′-methoxy-biphenyl-4-yl)-ethoxy]-pyrimidin-4-yl}-phenyl)-propionic acid], in experiment [2], the “blood 5HT” value is recorded as “did not affect blood 5HT” and the “urinary 5HIAA reduction” value is “up to 30%”. In the experiment with 5HT [3], the “5HT in the colon” value is “only a minor reduction observed in the colon”, the “5HT in the jejunum” value was “lowers 5HT in the jejunum” and the “brain 5HT” value is recorded as “no effect on brain 5HT”. Turning to `N[C@@H](Cc1ccc(Cl)cc1)C(=O)O` (racemic) [PCA, p-chlorophenylalanine], the tumor volume result in the experiment on cholangiocarcinoma was “dramatic reduction in tumor volume”. In the experiment on 5HT [4], the “5HT in the brain” value was roughly 20 % original and the “5HT in the gut” value is reported as roughly 50 % original. Usually IC50 stands for the midpoint of a concentration-inhibition curve. The compound `COCCN(C)c1ccc(OCC(=O)N2CCc3nc4n(c3C2c2ccc(Cl)cc2F)CCCC4)c(Cl)n1` (stereo not drawn) [Example 1.1.24, 1-(1-(4-chloro-2-fluorophenyl)-3,4,6,7,8,9-hexahydroimidazo[1,2-a:5,4-c′]dipyridin-2(1H)-yl)-2-((2-chloro-6-((2-methoxyethyl)(methyl)amino)pyridin-3-yl)oxy)ethan-1-one] had an IC50 against full length human TPH1 of 62 nM. On to `O=C(COc1cccnc1C(F)(F)F)N1CCc2nc3n(c2C1c1ncc(C2CC2)cc1F)CCNC3` (stereo not drawn) [Example 5.4.2, 1-(1-(5-cyclopropyl-3-fluoropyridin-2-yl)-3,4,6,7,8,9-hexahydropyrido[4′,3′:4,5]imidazo[1,2-a]pyrazin-2(1H)-yl)-2-((2-(trifluoromethyl)pyridin-3-yl)oxy)ethanone], for which inhibition on full length human TPH1 was half-maximal at 456 nM (IC50). In turn, `CC(=O)N1CCn2c(nc3c2C(c2ccc(C4CC4)cc2F)N(C(=O)COc2cccnc2C(F)(F)F)CC3)C1` (stereo not drawn) [Example 5.2.15, 1-(7-acetyl-1-(4-cyclopropyl-2-fluorophenyl)-3,4,6,7,8,9-hexahydropyrido[4′,3′:4,5]imidazo[1,2-a]pyrazin-2(1H)-yl)-2-((2-(trifluoromethyl)pyridin-3-yl)oxy)ethanone] displayed an IC50 on full length human TPH1 of 10 nM. On full length human TPH1, `CCc1nc(C)ccc1OCC(=O)N1CCc2nc3n(c2C1c1ccc(Cl)cc1F)CCS3` (stereo not drawn) [Example 4.1.8, 1-(5-(4-chloro-2-fluorophenyl)-2,3,7,8-tetrahydrothiazolo[2′,3′:2,3]imidazo[4,5-c]pyridin-6(5H)-yl)-2-((2-ethyl-6-methylpyridin-3-yl)oxy)ethanone] had an IC50 of 28 nM. The same measure, in the same setting: for `Cc1nc(C)c(C2c3c(nc4n3CCCC4)CCN2C(=O)COc2ccc(N3CCN(C)CC3)nc2Cl)s1` (stereo not drawn) [Example 1.10.9, 2-((2-chloro-6-(4-methylpiperazin-1-yl)pyridin-3-yl)oxy)-1-(1-(2,4-dimethylthiazol-5-yl)-3,4,6,7,8,9-hexahydroimidazo[1,2-a:5,4-c′]dipyridin-2(1H)-yl)ethanone] the value was 17 nM. On full length human TPH1, `CC(=O)N1CCn2c(nc3c2C(c2ncc(C4CC4)cc2F)N(C(=O)COc2cc(F)c(N4CCOCC4)nc2Cl)CC3)C1` (stereo not drawn) [Example 5.4.9, 1-(7-acetyl-1-(5-cyclopropyl-3-fluoropyridin-2-yl)-3,4,6,7,8,9-hexahydropyrido[4′,3′:4,5]imidazo[1,2-a]pyrazin-2(1H)-yl)-2-((2-chloro-5-fluoro-6-morpholinopyridin-3-yl)oxy)ethanone] had an IC50 of 15 nM. The compound `COc1ccc(C2c3c(nc4n3CCCC4)CCN2C(=O)COc2ccc(NS(C)(=O)=O)nc2Cl)c(F)c1` (stereo not drawn) [Example 1.21.2, N-(6-chloro-5-(2-(1-(2-fluoro-4-methoxyphenyl)-3,4,6,7,8,9-hexahydroimidazo[1,2-a:5,4-c′]dipyridin-2(1H)-yl)-2-oxoethoxy)pyridin-2-yl)methanesulfonamide] returned an IC50 against full length human TPH1 of 78 nM. Still for that read-out and setting: in the case of `O=C(COc1ccc(N2CCOCC2)nc1Cl)N1CCc2nc3n(c2C1c1ncc(C2CC2)cc1F)CCNC3` (stereo not drawn) [Example 5.4.3, 2-((2-chloro-6-morpholinopyridin-3-yl)oxy)-1-(1-(5-cyclopropyl-3-fluoropyridin-2-yl)-3,4,6,7,8,9-hexahydropyrido[4′,3′:4,5]imidazo[1,2-a]pyrazin-2(1H)-yl)ethanone] it was 20 nM.
